Measured values: the supplement of paper PMC8976852
± gives the standard deviation of the averaged measurements.

Tests used:
Experiment in all cases: activity (1 - area under the dose-response curve within the screened range) (fraction); higher = more sensitive
Conditions in all cases: treatment time: 72 h
HCM-SANG-0266-C20 = system: HCM-SANG-0266-C20 (colorectal cancer organoid)
Experimental: (§1)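 Patient-derived cancer organoids (colorectal and oesophageal, HCM-SANG models) were grown for up to 6 months in 5% or 80% ECM (BME-2), then seeded in 384-well plates on an ECM layer and treated with 72 compounds for 3 days. Each compound used a 7-point half-log dilution series spanning a 1000-fold range, in technical triplicate and biological duplicate. Dose-response curves were fitted with a non-linear mixed effects model; fits with RMSE > 0.3 were removed, and activity = 1 - AUC within the screened dose range (0 = no activity, 1 = maximum).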

HCM-SANG-0270-C20 = system: HCM-SANG-0270-C20 (colorectal cancer organoid)
Experimental: as §1

HCM-SANG-0291-C15 = system: HCM-SANG-0291-C15 (oesophageal cancer organoid)
Experimental: as §1

HCM-SANG-0532-C20 = system: HCM-SANG-0532-C20 (colorectal cancer organoid)
Experimental: as §1

[1] = ECM percentage in culture prior to screening 5 %
[2] = ECM percentage in culture prior to screening 80 %

SMILES	activity (HCM-SANG-0266-C20; [1])	activity (HCM-SANG-0266-C20; [2])	activity (HCM-SANG-0270-C20; [1])	activity (HCM-SANG-0270-C20; [2])	activity (HCM-SANG-0291-C15; [1])	activity (HCM-SANG-0291-C15; [2])	activity (HCM-SANG-0532-C20; [1])	activity (HCM-SANG-0532-C20; [2])
COCC1(CO)C(=O)C2CCN1CC2 (centres undefined) [PRIMA-1MET]	0.0344 ± 0.016	0.0318 ± 0.016	0.0251 ± 0.01	0.0283 ± 0.0083	0.0344 ± 0.019	0.0328 ± 0.011	0.074 ± 0.023	0.0388 ± 0.016
CCc1c2c(nc3ccc(OC(=O)N4CCC(N5CCCCC5)CC4)cc13)-c1cc3c(c(=O)n1C2)COC(=O)[C@]3(O)CC [Irinotecan]	0.0899 ± 0.035	0.0683 ± 0.022	0.0887 ± 0.063	0.079 ± 0.039	0.233 ± 0.019	0.18 ± 0.015	0.1 ± 0.035	0.0793 ± 0.037
O=c1cc(N2CCOCC2)oc2c(-c3cccc4c3sc3ccccc34)cccc12 [NU7441]	0.104 ± 0.032	0.063 ± 0.018	0.0446 ± 0.03	0.0686 ± 0.032	0.0932 ± 0.037	0.0809 ± 0.029	0.124 ± 0.045	0.119 ± 0.022
NC1(c2ccc(-c3nc4ccn5c(=O)[nH]nc5c4cc3-c3ccccc3)cc2)CCC1 [MK-2206]	0.223 ± 0.074	0.152 ± 0.095	0.076 ± 0.014	0.0487 ± 0.04	0.086 ± 0.048	0.0594 ± 0.025	0.158 ± 0.11	0.168 ± 0.034
C#Cc1cccc(Nc2ncnc3cc(OCCOC)c(OCCOC)cc23)c1 [Erlotinib]	0.171 ± 0.037	0.129 ± 0.053	0.148 ± 0.1	0.121 ± 0.086	0.204 ± 0.026	0.198 ± 0.033	0.207 ± 0.091	0.209 ± 0.06
N#CC[C@H](C1CCCC1)n1cc(-c2ncnc3[nH]ccc23)cn1 [Ruxolitinib]	0.0203 ± 0.00098	0.03 ± 0.01	0.0225 ± 0.0051	0.0229 ± 0.007	0.0206 ± 0.0044	0.0196 ± 0.0023	0.0295 ± 0.011	0.0236 ± 0.0026
CNC(=O)CN1CCC(Oc2cc3c(Nc4cccc(Cl)c4F)ncnc3cc2OC)CC1 [Sapitinib]	0.255 ± 0.081	0.121 ± 0.1	0.236 ± 0.12	0.139 ± 0.12	0.207 ± 0.076	0.159 ± 0.025	0.119 ± 0.038	0.179 ± 0.043
CC(=O)Nc1cccc(-n2c(=O)n(C3CC3)c(=O)c3c(Nc4ccc(I)cc4F)n(C)c(=O)c(C)c32)c1 [Trametinib]	0.207 ± 0.078	0.0946 ± 0.067	0.0906 ± 0.051	0.0586 ± 0.043	0.1 ± 0.019	0.0654 ± 0.02	0.114 ± 0.065	0.146 ± 0.024
CN(C)C(=O)c1cc2cnc(Nc3ccc(N4CCNCC4)cn3)nc2n1C1CCCC1 [Ribociclib]	0.0335 ± 0.011	0.0512 ± 0.053	0.046 ± 0.028	0.0291 ± 0.019	0.0289 ± 0.0084	0.0323 ± 0.016	0.0436 ± 0.036	0.0301 ± 0.0069
CC(=O)O[C@@]12CO[C@@H]1C[C@H](O)[C@@]1(C)C(=O)[C@H](O)C3=C(C)[C@@H](OC(=O)[C@H](O)[C@@H](NC(=O)OC(C)(C)C)c4ccccc4)C[C@@](O)([C@@H](OC(=O)c4ccccc4)[C@H]21)C3(C)C [Docetaxel]	0.237 ± 0.033	0.19 ± 0.031	0.0873 ± 0.042	0.14 ± 0.08	0.161 ± 0.058	0.188 ± 0.05	0.128 ± 0.028	0.158 ± 0.017
Cn1nnc2c(C(N)=O)ncn2c1=O [Temozolomide]	0.0575 ± 0.021	0.0651 ± 0.031	0.028 ± 0.013	0.0261 ± 0.0071	0.02 ± 0.0034	0.0234 ± 0.0089	0.0253 ± 0.0078	0.024 ± 0.0046
NC(=O)Nc1cc(-c2cccc(F)c2)sc1C(=O)N[C@H]1CCCNC1 [AZD7762]	0.287 ± 0.041	0.232 ± 0.029	0.23 ± 0.049	0.199 ± 0.05	0.269 ± 0.016	0.248 ± 0.043	0.14 ± 0.056	0.177 ± 0.035
C[C@@H]1COCCN1c1cc(C2([S@](C)(=N)=O)CC2)nc(-c2cc[nH]c3nccc2-3)n1 [AZD6738]	0.185 ± 0.037	0.178 ± 0.033	0.09 ± 0.039	0.0864 ± 0.052	0.199 ± 0.027	0.211 ± 0.037	0.116 ± 0.065	0.108 ± 0.026
CC1(C)CCC(c2ccc(Cl)cc2)=C(CN2CCN(c3ccc(C(=O)NS(=O)(=O)c4ccc(N[C@H](CCN5CCOCC5)CSc5ccccc5)c(S(=O)(=O)C(F)(F)F)c4)cc3)CC2)C1 [Navitoclax]	0.327 ± 0.03	0.358 ± 0.051	0.201 ± 0.033	0.188 ± 0.047	0.125 ± 0.032	0.121 ± 0.029	0.314 ± 0.045	0.288 ± 0.075
Cc1cc(-c2ncc(CC(=O)Nc3ccc(-c4cnccn4)cn3)cc2C)ccn1 [LGK974]	0.0334 ± 0.014	0.0329 ± 0.017	0.0409 ± 0.013	0.0485 ± 0.035	0.0263 ± 0.0099	0.0251 ± 0.0087	0.0269 ± 0.005	0.0397 ± 0.009
Cn1c(=O)n(-c2ccc(C(C)(C)C#N)cc2)c2c3cc(-c4cnc5ccccc5c4)ccc3ncc21 [Dactolisib]	0.254 ± 0.077	0.239 ± 0.092	0.123 ± 0.039	0.0768 ± 0.059	0.101 ± 0.035	0.0783 ± 0.027	0.193 ± 0.058	0.257 ± 0.025
Cc1cn(-c2cc(NC(=O)c3ccc(C)c(Nc4nccc(-c5cccnc5)n4)c3)cc(C(F)(F)F)c2)cn1 [Nilotinib]	0.0558 ± 0.029	0.0445 ± 0.025	0.0302 ± 0.0098	0.0451 ± 0.018	0.0659 ± 0.035	0.0726 ± 0.03	0.111 ± 0.036	0.104 ± 0.021
Nc1ccccc1NC(=O)c1ccc(CNC(=O)OCc2cccnc2)cc1 [Entinostat]	0.0903 ± 0.02	0.0905 ± 0.023	0.0723 ± 0.025	0.0687 ± 0.041	0.124 ± 0.045	0.119 ± 0.047	0.0795 ± 0.022	0.102 ± 0.025
Cc1cc([C@@H](C)Nc2ccccc2C(=O)O)c2nc(N3CCOCC3)cc(=O)n2c1 [AZD6482]	0.042 ± 0.03	0.0421 ± 0.017	0.0274 ± 0.021	0.0245 ± 0.008	0.0199 ± 0.0028	0.0269 ± 0.0093	0.0367 ± 0.021	0.0291 ± 0.011
Cc1cccc(-c2[nH]c(C(C)(C)C)nc2-c2ccc3c(c2)OCO3)n1	0.0398 ± 0.022	0.0534 ± 0.016	0.0741 ± 0.023	0.0613 ± 0.046	0.0256 ± 0.0074	0.0336 ± 0.018	0.0437 ± 0.015	0.0531 ± 0.017
COc1cc(CCc2cc(NC(=O)c3ccc(N4CC(C)NC(C)C4)cc3)n[nH]2)cc(OC)c1 (centres undefined) [AZD4547]	0.0268 ± 0.015	0.0233 ± 0.0077	0.0358 ± 0.023	0.0323 ± 0.017	0.0191 ± 0.001	0.0289 ± 0.014	0.0579 ± 0.039	0.0368 ± 0.013
O=C(c1cc(Cc2n[nH]c(=O)c3ccccc23)ccc1F)N1CCN(C(=O)C2CC2)CC1 [Olaparib]	0.0602 ± 0.028	0.0424 ± 0.017	0.0818 ± 0.017	0.0664 ± 0.027	0.0587 ± 0.015	0.0412 ± 0.017	0.0528 ± 0.018	0.0726 ± 0.027
CCc1cncnc1N1CCN(Cc2nc3ccc(C(F)(F)F)cc3[nH]2)CC1	0.206 ± 0.033	0.155 ± 0.029	0.127 ± 0.026	0.162 ± 0.031	0.0688 ± 0.038	0.0744 ± 0.019	0.222 ± 0.04	0.426 ± 0.041
